Results reported in patent US20140249084A1, “PTH-CONTAINING THERAPEUTIC/PROPHYLACTIC AGENT FOR OSTEOPOROSIS, CHARACTERIZED IN THAT PTH IS ADMINISTERED ONCE A WEEK IN A UNIT DOSE OF 100 TO 200 UNITS” (ASAHI KASEI PHARMA CORPORATION, priority 2009, published 2014).

Tests used:
[1] = tested on: high-risk patients diagnosed with primary osteoporosis; assay: Femur (neck, proximal) bone density by DXA, Working Example 2; type: in vivo, human; conditions: 200 units once a week; for Change in bone density (%): patients taking glucocorticoid
Protocol: For the bone density of the femur, only the left side of the proximal part of the femur, rotated 20°, was measured at the start and every 24 weeks thereafter using dual-energy x-ray absorptiometry (DXA).

[2] = tested on: patients diagnosed with primary osteoporosis; assay: Fractures at sites other than the vertebrae (roentgen films), Working Example 1; type: in vivo, human; conditions: fractures of sites other than the vertebrae
Protocol: (§1) Both the 5 and 100 unit groups were administered two tablets of a calcium agent (containing 500 mg of precipitated calcium carbonate [200 mg as calcium] per tablet) once a day.
(§2) The osteoporosis patients were classified as condition shown in Table 1 based on the bone fracture risk factors present, as in Non-patent Reference 13, and compared. High-risk patients were defined as having all three factors involving age, prevalent vertebral fractures, and bone density or bone atrophy; low-risk patients were defined as other than the above.

[3] = tested on: high-risk patients diagnosed with primary osteoporosis; assay: Vertebral fractures (new+worsening), Kaplan-Meier estimation, Working Example 2; type: in vivo, human; conditions: after 72 weeks; FAS; 200 units once a week
Excerpt: The incidence of bone fractures was checked by frontal and lateral x-rays of the fourth thoracic to the fourth lumbar spine taken at the start and every 24 weeks thereafter.
The incidence of vertebral fractures (new±worsening) after 72 weeks by Kaplan-Meier estimation in the FAS of the fracture study was 3.5% in the PTH200 group and 16.3% in the P group. The incidence with 200 units of this drug was lower than in the placebo group (log rank test, p<0.0001). […] When the six-month vertebral fracture (new+worsening) incidence was compared between groups, the incidence of the PTH200 group was lower than that of the P group in all divisions consisting of within 24 weeks, 24 to 48 weeks, and 48 to 72 weeks.

[4] = tested on: high-risk patients diagnosed with primary osteoporosis; assay: CT geometry of the femur (multislice CT), Working Example 2; type: in vivo, human; conditions: 200 units once a week
Protocol: For the CT geometry, the proximal part of the femur was measured at the start and after 48 and 72 weeks using multislice CT scan.
The effects of the test drug on three parts of the femur (neck of the femur, trochanter, and shaft of the femur) were studied using ordinary CT scans.

[5] = tested on: patients diagnosed with primary osteoporosis; assay: New vertebral fractures by x-ray (method of Genant), Working Example 1; type: in vivo, human; conditions: for Incidence (%) / No. of fractures / No. with fractures: new vertebral fractures every 26 weeks; for No. of vertebral fractures / No. with fractures (persons): new vertebral fractures
Protocol: as §1, §2

[6] = in vivo
Excerpt: The incidence of adverse events was studied after administering the test drug to the a group of osteoporosis patients having normal renal function, a group of osteoporosis patients having mild renal dysfunction, and a group of osteoporosis patients having moderate renal dysfunction.

[7] = in vivo; remark: listed apart in the source
Protocol: The Lumbar spine bone mineral density and occurrence of bone fractures were checked as bone assessments. For the Lumbar spine bone mineral density, the bone density of the second to fourth lumbar spine was measured at the start and every six months thereafter using dual-energy x-ray absorptiometry (DXA). For the frequency of bone fractures, x-rays were taken from the front and side of the fourth thoracic to the fifth lumbar spine at the start and every six months thereafter, and new vertebral fractures were assessed by comparison of the roentgen films at the start and at each point in time thereafter using the method of Genant et al. (Non-patent Reference 14) as a reference. In locations other than the vertebrae, fractures were evaluated by checking by roentgen films. Blood samples were also taken from all patients at the beginning and during administration, and the general laboratory test values, including the calcium concentration, were measured. The administration period in high-risk patients (DXA and new vertebral fractures were assessed collectively at the center; fractures of other than vertebrae were assessed by the investigator based on the roentgen films) was 85.1±20.8 weeks in the 5 unit group and 83.7±19.8 weeks in the 100 unit group. […] The administration period in low-risk patients was 72.7±19.4 weeks in the 5 unit group and 88.3±21.3 weeks in the 100 unit group.

[8] = high-risk patients, 5 units once a week
[9] = high-risk patients, 100 units once a week
[10] = low-risk patients, 5 units once a week
[11] = low-risk patients, 100 units once a week
[12] = high-risk patients, 5 units once a week, After 26 W
[13] = high-risk patients, 5 units once a week, After 52 W
[14] = high-risk patients, 5 units once a week, After 78 W
[15] = high-risk patients, 5 units once a week, After 104 W
[16] = high-risk patients, 5 units once a week, After 130 W
[17] = high-risk patients, 100 units once a week, After 26 W
[18] = high-risk patients, 100 units once a week, After 52 W
[19] = high-risk patients, 100 units once a week, After 78 W
[20] = high-risk patients, 100 units once a week, After 104 W
[21] = high-risk patients, 100 units once a week, After 130 W
[22] = low-risk patients, 5 units once a week, After 26 W
[23] = low-risk patients, 5 units once a week, After 52 W
[24] = low-risk patients, 5 units once a week, After 78 W
[25] = low-risk patients, 5 units once a week, After 104 W
[26] = low-risk patients, 5 units once a week, After 130 W
[27] = low-risk patients, 100 units once a week, After 26 W
[28] = low-risk patients, 100 units once a week, After 52 W
[29] = low-risk patients, 100 units once a week, After 78 W
[30] = low-risk patients, 100 units once a week, After 104 W
[31] = low-risk patients, 100 units once a week, After 130 W

## teriparatide acetate
[1]; Neck of femur, 24 W, history of Alfacalcidol
  Percentage change in bone density (%): 1.64%
[1]; Neck of femur, 24 W, history of Calcitriol
  Percentage change in bone density (%): −0.60%
[1]; Neck of femur, 24 W, history of Calcium L-aspartate
  Percentage change in bone density (%): 1.44%
[1]; Neck of femur, 24 W, history of Calcium lactate
  Percentage change in bone density (%): 0.30%
[1]; Neck of femur, 24 W, history of Elcatonin
  Percentage change in bone density (%): 1.62%
[1]; Neck of femur, 24 W, history of Menatetrenone
  Percentage change in bone density (%): 0.72%
[1]; Neck of femur, 24 W, history of Raloxifene hydrochloride
  Percentage change in bone density (%): 0.21%
[1]; Neck of femur, 24 W
  Change in bone density (%): 2.53%
[1]; Neck of femur, 48 W, history of Alfacalcidol
  Percentage change in bone density (%): 0.85%
[1]; Neck of femur, 48 W, history of Calcitriol
  Percentage change in bone density (%): −4.03%
[1]; Neck of femur, 48 W, history of Calcium L-aspartate
  Percentage change in bone density (%): 1.88%
[1]; Neck of femur, 48 W, history of Calcium lactate
  Percentage change in bone density (%): −4.35%
[1]; Neck of femur, 48 W, history of Elcatonin
  Percentage change in bone density (%): 0.72%
[1]; Neck of femur, 48 W, history of Menatetrenone
  Percentage change in bone density (%): −3.18%
[1]; Neck of femur, 48 W, history of Raloxifene hydrochloride
  Percentage change in bone density (%): 1.03%
[1]; Neck of femur, 48 W
  Change in bone density (%): 2.79%
[1]; Neck of femur, 72 W, history of Alfacalcidol
  Percentage change in bone density (%): 2.19%
[1]; Neck of femur, 72 W, history of Calcitriol
  Percentage change in bone density (%): −3.53%
[1]; Neck of femur, 72 W, history of Calcium L-aspartate
  Percentage change in bone density (%): 4.17%
[1]; Neck of femur, 72 W, history of Calcium lactate
  Percentage change in bone density (%): −2.53%
[1]; Neck of femur, 72 W, history of Elcatonin
  Percentage change in bone density (%): 3.15%
[1]; Neck of femur, 72 W, history of Menatetrenone
  Percentage change in bone density (%): −0.78%
[1]; Neck of femur, 72 W, history of Raloxifene hydrochloride
  Percentage change in bone density (%): −0.51%
[1]; Neck of femur, 72 W
  Change in bone density (%): 2.44%
[1]; Proximal femur, 24 W, history of Alfacalcidol
  Percentage change in bone density (%): 2.77%
[1]; Proximal femur, 24 W, history of Calcitriol
  Percentage change in bone density (%): −1.40%
[1]; Proximal femur, 24 W, history of Calcium L-aspartate
  Percentage change in bone density (%): 1.76%
[1]; Proximal femur, 24 W, history of Calcium lactate
  Percentage change in bone density (%): 1.78%
[1]; Proximal femur, 24 W, history of Elcatonin
  Percentage change in bone density (%): 3.86%
[1]; Proximal femur, 24 W, history of Menatetrenone
  Percentage change in bone density (%): 0.60%
[1]; Proximal femur, 24 W, history of Raloxifene hydrochloride
  Percentage change in bone density (%): 2.44%
[1]; Proximal femur, 24 W
  Change in bone density (%): 2.46%
[1]; Proximal femur, 48 W, history of Alfacalcidol
  Percentage change in bone density (%): 2.31%
[1]; Proximal femur, 48 W, history of Calcitriol
  Percentage change in bone density (%): −1.05%
[1]; Proximal femur, 48 W, history of Calcium L-aspartate
  Percentage change in bone density (%): 2.28%
[1]; Proximal femur, 48 W, history of Calcium lactate
  Percentage change in bone density (%): −1.68%
[1]; Proximal femur, 48 W, history of Elcatonin
  Percentage change in bone density (%): 3.44%
[1]; Proximal femur, 48 W, history of Menatetrenone
  Percentage change in bone density (%): −0.56%
[1]; Proximal femur, 48 W, history of Raloxifene hydrochloride
  Percentage change in bone density (%): 2.26%
[1]; Proximal femur, 48 W
  Change in bone density (%): 3.39%
[1]; Proximal femur, 72 W, history of Alfacalcidol
  Percentage change in bone density (%): 2.31%
[1]; Proximal femur, 72 W, history of Calcitriol
  Percentage change in bone density (%): −0.04%
[1]; Proximal femur, 72 W, history of Calcium L-aspartate
  Percentage change in bone density (%): 3.69%
[1]; Proximal femur, 72 W, history of Calcium lactate
  Percentage change in bone density (%): −3.20%
[1]; Proximal femur, 72 W, history of Elcatonin
  Percentage change in bone density (%): 4.41%
[1]; Proximal femur, 72 W, history of Menatetrenone
  Percentage change in bone density (%): −1.40%
[1]; Proximal femur, 72 W, history of Raloxifene hydrochloride
  Percentage change in bone density (%): 3.03%
[1]; Proximal femur, 72 W
  Change in bone density (%): 3.06%
[2]; [8]
  No. with fractures (persons): 6 persons
[2]; [9]
  No. with fractures (persons): 1 persons
[2]; [10]
  No. with fractures (persons): 1 persons
[2]; [11]
  No. with fractures (persons): 0 persons
[3]
  Incidence of vertebral fractures (new±worsening) by Kaplan-Meier estimation: 3.5%
[4]; Neck of femur
  Volume bone mineral density (cortical bone) [vBMD cortical], change from baseline after 48 weeks (%): −0.77%
  Volume bone mineral density (total) [vBMD total], change from baseline after 48 weeks (%): 0.92%
  Volume bone mineral density (total) [vBMD total], change from baseline after 72 weeks (%): 0.15%
[4]; Shaft of femur
  Volume bone mineral density (cortical bone) [vBMD cortical], change from baseline after 48 weeks (%): 0.59%
  Volume bone mineral density (cortical bone) [vBMD cortical], change from baseline after 72 weeks (%): 0.18%
[4]; Trochanter
  Maximum section modulus (SM (Z min)), change from baseline after 72 weeks (%): 3.20%
  Volume bone mineral density (cortical bone) [vBMD cortical], change from baseline after 48 weeks (%): −0.49%
  Volume bone mineral density (total) [vBMD total], change from baseline after 72 weeks (%): 0.95%
[5]; [12]
  Incidence (%): 9.5%
  No. of fractures: 8
  No. with fractures: 6
[5]; [13]
  Incidence (%): 11.1%
  No. of fractures: 9
  No. with fractures: 7
[5]; [14]
  Incidence (%): 7.0%
  No. of fractures: 4
  No. with fractures: 4
[5]; [15]
  Incidence (%): 2.9%
  No. of fractures: 1
  No. with fractures: 1
[5]; [16]
  No. of fractures: 0
  No. with fractures: 0
[5]; [17]
  Incidence (%): 2.0%
  No. of fractures: 1
  No. with fractures: 1
[5]; [18]
  Incidence (%): 2.0%
  No. of fractures: 1
  No. with fractures: 1
[5]; [19]
  Incidence (%): 2.2%
  No. of fractures: 1
  No. with fractures: 1
[5]; [20]
  No. of fractures: 0
  No. with fractures: 0
[5]; [21]
  No. of fractures: 0
  No. with fractures: 0
[5]; [22]
  No. of fractures: 0
  No. with fractures: 0
[5]; [23]
  Incidence (%): 4.8%
  No. of fractures: 1
  No. with fractures: 1
[5]; [24]
  No. of fractures: 0
  No. with fractures: 0
[5]; [25]
  No. of fractures: 0
  No. with fractures: 0
[5]; [26]
  No. of fractures: 0
  No. with fractures: 0
[5]; [27]
  Incidence (%): 8.3%
  No. of fractures: 2
  No. with fractures: 1
[5]; [28]
  No. of fractures: 0
  No. with fractures: 0
[5]; [29]
  No. of fractures: 0
  No. with fractures: 0
[5]; [30]
  No. of fractures: 0
  No. with fractures: 0
[5]; [31]
  No. of fractures: 0
  No. with fractures: 0
[5]; [8]
  No. of vertebral fractures: 22
  No. with fractures (persons): 13 persons
[5]; [9]
  No. of vertebral fractures: 3
  No. with fractures (persons): 3 persons
[5]; [10]
  No. of vertebral fractures: 1
  No. with fractures (persons): 1 persons
[5]; [11]
  No. of vertebral fractures: 2
  No. with fractures (persons): 1 persons
[6]
  Adverse events: No (%): 4.4%
  Adverse events: No, No. of cases: 2
  Adverse events: Point estimate of the difference: 2.0
  Adverse events: Yes, No. of cases: 65
[7]
  Hypercalcemia: did not cause hypercalcemia at either dose
  Tendency for the serum calcium to rise: no tendency for the serum calcium to rise was seen
